ChEMBL document CHEMBL5126582, “Discovery of (2-(pyrrolidin-1-yl)thieno[3,2-d]pyrimidin-4-yl)(3,4,5-trimethoxyphenyl)methanone as a novel potent tubulin depolymerizing and vascular disrupting agent” (Eur J Med Chem, 2022)

Experiments:
HL-60 = experiment: Antiproliferative activity against human HL-60 cells assessed as reduction in cell viability incubated for 48 hrs by MTS assay; format: functional, cell-based; conditions: HL-60, 48 h
HCT-116 = experiment: Antiproliferative activity against human HCT-116 cells assessed as reduction in cell viability incubated for 48 hrs by MTS assay; format: functional, cell-based; conditions: HCT-116, 48 h
HeLa [1] = experiment: Antiproliferative activity against human HeLa cells assessed as reduction in cell viability incubated for 48 hrs by MTS assay; format: functional, cell-based
A549 = experiment: cells; conditions: Homo sapiens, A549, 48 h
Description: Antiproliferative activity against human A549 cells assessed as reduction in cell viability incubated for 48 hrs by MTS assay

HeLa [2] = experiment: Induction of apoptosis in human HeLa cells assessed as viable cells at 10 nM incubated for 24 hrs by annexin V FITC and propidium iodide staining based flow cytometry analysis (reference value: 85.7%); format: functional; conditions: read-out: Activity
HeLa [3] = experiment: Induction of apoptosis in human HeLa cells assessed as early apoptotic cells at 10 nM incubated for 24 hrs by annexin V FITC and propidium iodide staining based flow cytometry analysis (reference value: 0.12%); format: functional
HeLa [4] = experiment: Induction of apoptosis in human HeLa cells assessed as late apoptotic cells at 10 nM incubated for 24 hrs by annexin V FITC and propidium iodide staining based flow cytometry analysis (reference value: 0.05%); format: functional
HeLa [5] = experiment: Induction of apoptosis in human HeLa cells assessed as necrotic cells at 10 nM incubated for 24 hrs by annexin V FITC and propidium iodide staining based flow cytometry analysis (reference value: 1.14 %); format: functional
HeLa [6] = experiment: Induction of apoptosis in human HeLa cells assessed as viable cells at 10 nM incubated for 48 hrs by annexin V FITC and propidium iodide staining based flow cytometry analysis (reference value: 85.5%); format: functional; conditions: read-out: Activity
HeLa [7] = experiment: Induction of apoptosis in human HeLa cells assessed as early apoptotic cells at 10 nM incubated for 48 hrs by annexin V FITC and propidium iodide staining based flow cytometry analysis (reference value: 6.01%); format: functional
HeLa [8] = experiment: Induction of apoptosis in human HeLa cells assessed as late apoptotic cells at 10 nM incubated for 48 hrs by annexin V FITC and propidium iodide staining based flow cytometry analysis (reference value: 8.87%); format: functional
HeLa [9] = experiment: Induction of apoptosis in human HeLa cells assessed as necrotic cells at 10 nM incubated for 48 hrs by annexin V FITC and propidium iodide staining based flow cytometry analysis (reference value: 1.85 %); format: functional
HeLa [10] = experiment: Induction of apoptosis in human HeLa cells assessed as viable cells at 10 nM incubated for 72 hrs by annexin V FITC and propidium iodide staining based flow cytometry analysis (reference value: 90.1%); format: functional; conditions: read-out: Activity
HeLa [11] = experiment: Induction of apoptosis in human HeLa cells assessed as early apoptotic cells at 10 nM incubated for 72 hrs by annexin V FITC and propidium iodide staining based flow cytometry analysis (reference value: 2.36%); format: functional
HeLa [12] = experiment: Induction of apoptosis in human HeLa cells assessed as late apoptotic cells at 10 nM incubated for 72 hrs by annexin V FITC and propidium iodide staining based flow cytometry analysis (reference value: 4.70%); format: functional
HeLa [13] = experiment: Induction of apoptosis in human HeLa cells assessed as necrotic cells at 10 nM incubated for 72 hrs by annexin V FITC and propidium iodide staining based flow cytometry analysis (reference value: 2.88 %); format: functional
HeLa [14] = experiment: Induction of mitochondrial membrane potential alteration in human HeLa cells assessed as viable cells at 10 nM measured after 48 hrs by JC1 staining-based flow cytometry analysis (reference value: 90.9%); format: functional; conditions: read-out: Activity
HeLa [15] = experiment: Induction of mitochondrial membrane potential alteration in human HeLa cells assessed as early apoptotic cells at 10 nM measured after 48 hrs by JC1 staining-based flow cytometry analysis (reference value: 9.07 %); format: functional
HeLa [16] = experiment: Induction of mitochondrial membrane potential alteration in human HeLa cells assessed as late apoptotic cells at 10 nM measured after 48 hrs by JC1 staining-based flow cytometry analysis (reference value: 0.009%); format: functional
HeLa [17] = experiment: Induction of mitochondrial membrane potential alteration in human HeLa cells assessed as necrotic cells at 10 nM measured after 48 hrs by JC1 staining-based flow cytometry analysis (reference value: 0%); format: functional
[18] = Metabolic stability in rat liver microsomes assessed as intrinsic clearance incubated for 5 mins in presence of NADPH by HPLC analysis; format: ADME, Microsome; conditions: read-out: CLH
[19] = Antiproliferative activity against human A549/PTX cells assessed as reduction in cell viability measured for 48 hrs by MTS assay; format: functional, cell-based
[20] = Resistance index, ratio of IC50 for antiproliferative activity against human A549/PTX cells assessed as reduction in cell viability to IC50 for antiproliferative activity against human A549 cells assessed as reduction in cell viability; format: functional

IC50 (HL-60)	IC50 (HCT-116)	IC50 (HeLa [1])	IC50 (A549)	SMILES	also measured
32 nM	114 nM	58 nM	45 nM	CNc1nc(C(=O)c2cc(OC)c(OC)c(OC)c2)c2sccc2n1	–
934 nM	616 nM	4380 nM	4340 nM	COc1cc(OC)cc(C(=O)c2nc(N3CCCC3)nc3ccsc23)c1	–
> 10000 nM	> 10000 nM	> 10000 nM	> 10000 nM	COc1cc(C(=O)c2nc(N3CCS(=O)(=O)CC3)nc3ccsc23)cc(OC)c1OC	–
285 nM	> 10000 nM	> 10000 nM	> 10000 nM	COc1cc(C(=O)c2nc(SC)nc3ccsc23)cc(OC)c1OC	–
> 10000 nM	> 10000 nM	> 10000 nM	> 10000 nM	COc1cc(C(=O)c2nc(N3CCNCC3)nc3ccsc23)cc(OC)c1OC	–
> 10000 nM	> 10000 nM	> 10000 nM	> 10000 nM	CCN(CC)c1nc(C(=O)c2cc(OC)c(OC)c(OC)c2)c2sccc2n1	–
536 nM	> 10000 nM	1220 nM	> 10000 nM	COc1cc(C(=O)c2nc(N(C)C)nc3ccsc23)cc(OC)c1OC	–
> 10000 nM	> 10000 nM	> 10000 nM	> 10000 nM	COc1cc(C(=O)c2nc(N3CCOCC3)nc3ccsc23)cc(OC)c1OC	–
8400 nM	> 10000 nM	> 10000 nM	> 10000 nM	COc1cc(C(=O)c2nc(NC3CCCC3)nc3ccsc23)cc(OC)c1OC	–
> 10000 nM	> 10000 nM	> 10000 nM	> 10000 nM	COc1ccc(C(=O)c2nc(N3CCCC3)nc3ccsc23)cc1OC	–
7090 nM	> 10000 nM	> 10000 nM	> 10000 nM	CCOc1nc(C(=O)c2cc(OC)c(OC)c(OC)c2)c2sccc2n1	–
> 10000 nM	> 10000 nM	> 10000 nM	> 10000 nM	COc1cc(C(=O)c2nc(N(C)C3CCCCC3)nc3ccsc23)cc(OC)c1OC	–
8050 nM	> 10000 nM	> 10000 nM	> 10000 nM	COc1cc(C(=O)c2nc(NC3CCOCC3)nc3ccsc23)cc(OC)c1OC	–
122 nM	1740 nM	194 nM	452 nM	COc1cc(C(=O)c2nc(N3CCCC3)nc3cc(C)sc23)cc(OC)c1OC	–
3430 nM	1400 nM	2200 nM	4980 nM	COc1cc(C(=O)c2nc(N3CCC(O)C3)nc3ccsc23)cc(OC)c1OC (configuration not stated)	–
174 nM	309 nM	37 nM	147 nM	CCNc1nc(C(=O)c2cc(OC)c(OC)c(OC)c2)c2sccc2n1	–

IC50 (HL-60)	IC50 (HCT-116)	IC50 (HeLa [1])	IC50 (A549)	SMILES	also measured
> 10000 nM	> 10000 nM	> 10000 nM	> 10000 nM	COc1cc(C(=O)c2nc(N3CCN(C)CC3)nc3ccsc23)cc(OC)c1OC	–
–	–	–	–	O=C(O)Cc1ccccc1Nc1c(Cl)cccc1Cl [DICLOFENAC]	microsomal CLint [18]: 64.2 µL/min/mg
93 nM	26 nM	22 nM	101 nM	COc1cc(C(=O)c2nc(N3CC=CC3)nc3ccsc23)cc(OC)c1OC	–
377 nM	507 nM	351 nM	303 nM	COc1cc(C(=O)c2nc(N3CCC(F)(F)C3)nc3ccsc23)cc(OC)c1OC	–
486 nM	278 nM	758 nM	3140 nM	COc1cc(C(=O)c2nc(N3CCC3)nc3ccsc23)cc(OC)c1OC	–
1120 nM	> 10000 nM	1200 nM	> 10000 nM	COc1cc(C(=O)c2nc(N3CCCCC3)nc3ccsc23)cc(OC)c1OC	–
> 10000 nM	> 10000 nM	> 10000 nM	> 10000 nM	COc1cc(C(=O)c2nc(N3CCSCC3)nc3ccsc23)cc(OC)c1OC	–
> 10000 nM	> 10000 nM	> 10000 nM	> 10000 nM	COc1ccc(C(=O)c2nc(N3CCCC3)nc3ccsc23)cc1	–
2460 nM	> 10000 nM	> 10000 nM	> 10000 nM	COc1cc(C(=O)c2nc(NC3CCCCC3)nc3ccsc23)cc(OC)c1OC	–
224 nM	329 nM	263 nM	965 nM	COc1nc(C(=O)c2cc(OC)c(OC)c(OC)c2)c2sccc2n1	–
–	151 nM	53 nM	–	COc1cc(C(=O)c2nc(Nc3cccc(C)c3)nc3ccsc23)cc(OC)c1OC	–
651 nM	293 nM	933 nM	2400 nM	COc1cc(C(=O)c2nc(NC3CCC3)nc3ccsc23)cc(OC)c1OC	–
> 10000 nM	> 10000 nM	> 10000 nM	> 10000 nM	COc1cc(C(=O)c2nc(C3CCCC3)nc3ccsc23)cc(OC)c1OC	–
9570 nM	> 10000 nM	> 10000 nM	> 10000 nM	COc1cccc(C(=O)c2nc(N3CCCC3)nc3ccsc23)c1	–
–	–	–	1.1 nM	CC(=O)O[C@H]1C(=O)[C@@]2(C)[C@H]([C@H](OC(=O)c3ccccc3)[C@]3(O)C[C@H](OC(=O)[C@H](O)[C@@H](NC(=O)c4ccccc4)c4ccccc4)C(C)=C1C3(C)C)[C@]1(OC(C)=O)CO[C@@H]1C[C@@H]2O [PACLITAXEL]	IC50 [19]: 1020 nM; Ratio IC50 [20]: 964
889 nM	225 nM	1140 nM	954 nM	COc1cc(C(=O)c2nc(Cl)nc3ccsc23)cc(OC)c1OC	–

SMILES	IC50 (HL-60)	IC50 (HCT-116)	IC50 (HeLa [1])	IC50 (A549)	also measured
COc1ccc(/C=C\c2cc(OC)c(OC)c(OC)c2)cc1O [COMBRETASTATIN A4]	1.3 nM	1.1 nM	1.4 nM	7.5 nM	viability at 0.01 µM (HeLa [2]): 79.4%; Activity (HeLa [3]): 7.41%; Activity (HeLa [4]): 7.5%; Activity (HeLa [5]): 8.87%; viability at 0.01 µM (HeLa [6]): 16.9%; Activity (HeLa [7]): 20.1%; Activity (HeLa [8]): 51.9%; Activity (HeLa [9]): 11.2%; viability at 0.01 µM (HeLa [10]): 25.1%; Activity (HeLa [11]): 17%; Activity (HeLa [12]): 31.8%; Activity (HeLa [13]): 23.3%; viability at 0.01 µM (HeLa [14]): 82%; Activity (HeLa [15]): 18%; Activity (HeLa [16]): 0%; Activity (HeLa [17]): 0.011%
